Test results reported in patent US6929685B2, “Alkylamine derivatives as antifouling agents” (Bayer Atiengesellschaft, priority 2001, dated 2005).

What was measured:
algae = test: Raft panel static immersion test of antifouling paints: algae; design: key: G: Not present; Some light slime; F: Overall covered; conditions: Dutch harbor, sea water
Text: (§1) The prepared paints have been evaluated on can stability, adhesion and film defects. The antifouling performance has been tested by application of the paints on raft panels. At first the steel panels had been protected with a standard anticorrosive system for marine environments (300 μm in dft). The to be tested antifouling paint had been applied in 2 layers with a total dry film thickness between 200 and 300 μm. Finally the panels were subjected to a static immersion test on rafts at sea harbors in Holland. The paints were inspected for the presence of fouling (% of area covered with fouling organisms) and of film defects every two months. The tested paint formulations are represented in Table 1.
(§2) Further explanations to Table 1: • 1. Model coatings of type 1 (MC-1A/B/C) are for the evaluation of the algicidal properties of the claimed structures at three different representative weight-% next to 35% cuprous oxide. Good performing references are model coating MC-2 and MC-3 [35% cuprous oxide+3% Seanine (MC-2) or 35% cuprous oxide+3% Irgarol (MC-3)]. Base level references are “cuprous oxide only” formulations [cuprous oxide only (35% (MC4) and 50% level (MC-5)]. • 2. Model coatings of type 6 and 7 are for the evaluation of the activity of the claimed structures against “hard fouling” in combination with two different types of algicides: claimed structure (1/2/4%; MC-6-A/B/C)+3% Seanine or claimed structure (1/2/4%; MC-7-A/B/C)+3% Irgarol). Base level references are “algicide only” formulations with 3% Seanine (MC-8) or 3% Irgarol (MC-9).
(§3) 3. Model coatings of type 10 (MC-10A/B) evaluate the total spectrum of biocidal activity by using the claimed structure as only biocide at 2 levels (4 and 8 w %). Good performing references are “cuprous oxide only” formulations [cuprous oxide 35% (MC-4) and 50% (MC-5)]. As blank serves model coating 11 (MC-1 1) containing no biocide at all.
(§4) The claimed structures were tested at several levels of dosage with and without an algicide as co-biocide. The following formulations were used for comparison: formulations with cuprous oxide, formulations with cuprous oxide and commercial co-biocides, a blank and two formulations that only contained the co-biocide and finally a commercial tributyltin-releasing self polishing system.
(§5) An even better protection can be obtained by combining claimed structures with co-biocides like the algicides that are commonly used for antifoulings.

hard fouling = test: Raft panel static immersion test of antifouling paints: hard fouling; design: key: G: Not present; Some light slime; F: Overall covered; conditions: Dutch harbor, sea water
Text: as §1, §2, §3, §4, §5

fouling organisms = test: Raft panel static immersion test of antifouling paints: overall; design: key: good (G); satisfactory (S); failure (F); conditions: Dutch harbor, sea water
Text: as §1, §2, §3, §4, §5

[1] = system: cyprid larvae of the barnacle Balanus amphitrite; test: Settlement assay, cyprid larvae of the barnacle; type: in vivo; conditions: Balanus amphitrite cyprids, seawater, 27° C., Spearman-Karber
Experimental: The rate of settlement of laboratory reared cyprid larvae of the barnacle Balanus amphitrite was determined for testing the activity of candidate antifouling compounds. Settlement Assay Tests are carried out in four replicates in sterile polystyrene multi well plates. Between 25 and 40 cyprid larvae are injected in the dishes containing either 2 ml of test solution (see below), solvent control or a positive control (dichloro-n-octyl-isothiazolinone). Dishes are incubated for 24 h at a temperature of 27° C. ±2. After incubation the cyprids are screened for signs of toxicity. The test is terminated by addition of a drop of 20% formaldehyde and the numbers of settled and non-settled larvae are counted. Settlement is evaluated as follows: 1) non settled: not attached free-swimming cyprids, 2) settled cyprids: attached, but not metamorphosed cyprids, 3) barnacles: attached juvenile barnacles. Categories 2 and 3 are considered to be settled. Percentage settlement in test solution is compared with controls. Estimates of the median effect concentration (EC50) after […] are calculated using the Spearman-Karber method. All seawater used is of natural origin and filtered unto 0.2 μm. Stock solutions of test compounds are prepared by dissolving an amount of test substance in a suitable solvent and subsequent addition of seawater. […]

slime = test: Raft panel static immersion test of antifouling paints: slime; design: key: G: Not present; Some light slime; F: Overall covered; conditions: Dutch harbor, sea water
Text: as §1, §2, §3, §4, §5

[2] = model coating 1B: 35% Cu2O + 2% of compound
[3] = model coating 1C: 35% Cu2O + 3% of compound
[4] = model coating 6A: 1% of compound + 3% Seanine
[5] = model coating 6B: 2% of compound + 3% Seanine
[6] = model coating 6C: 4% of compound + 3% Seanine
[7] = model coating 7A: 1% of compound + 3% Irgarol
[8] = model coating 7B: 2% of compound + 3% Irgarol
[9] = model coating 7C: 4% of compound + 3% Irgarol
[10] = model coating 1A: 35% Cu2O + 1% of compound
[11] = model coating 10B: 8% of compound as only biocide
[12] = model coating 10A: 4% of compound as only biocide

C=CCCCCCCCCCNC=O [Compound 8, N-formyl-1-aminoundec-10-ene]
F: Performance (1 yr immersed) Overall (fouling organisms; [4]) | Performance (1 yr immersed) Overall (fouling organisms; [7]) | Performance (1 yr immersed) Overall (fouling organisms; [12]) | Performance (1 yr immersed) Slime (slime; [12])
0.60 ppm: EC50 for settlement inhibition in ppm [1]
S: Performance (1 yr immersed) Overall (fouling organisms; [10]) | Performance (1 yr immersed) Overall (fouling organisms; [2]) | Performance (1 yr immersed) Overall (fouling organisms; [5]) | Performance (1 yr immersed) Overall (fouling organisms; [8]) | Performance (1 yr immersed) Overall (fouling organisms; [9]) | Performance (1 yr immersed) Overall (fouling organisms; [11]) | Performance (1 yr immersed) Slime (slime; [10]) | Performance (1 yr immersed) Slime (slime; [2]) | Performance (1 yr immersed) Slime (slime; [4]) | Performance (1 yr immersed) Slime (slime; [5]) | Performance (1 yr immersed) Slime (slime; [7]) | Performance (1 yr immersed) Slime (slime; [8]) | Performance (1 yr immersed) Slime (slime; [9]) | Performance (1 yr immersed) Slime (slime; [11])
G: Performance (1 yr immersed) Algae (algae; [2]) | Performance (1 yr immersed) Algae (algae; [3]) | Performance (1 yr immersed) Algae (algae; [4]) | Performance (1 yr immersed) Algae (algae; [5]) | Performance (1 yr immersed) Algae (algae; [6]) | Performance (1 yr immersed) Algae (algae; [7]) | Performance (1 yr immersed) Algae (algae; [8]) | Performance (1 yr immersed) Algae (algae; [9]) | Performance (1 yr immersed) Hard fouling (hard fouling; [10]) | Performance (1 yr immersed) Hard fouling (hard fouling; [2]) | Performance (1 yr immersed) Hard fouling (hard fouling; [3]) | Performance (1 yr immersed) Hard fouling (hard fouling; [6]) | Performance (1 yr immersed) Hard fouling (hard fouling; [11]) | Performance (1 yr immersed) Overall (fouling organisms; [3]) | Performance (1 yr immersed) Overall (fouling organisms; [6]) | Performance (1 yr immersed) Slime (slime; [3]) | Performance (1 yr immersed) Slime (slime; [6])
